Data from US6608027B1, “Macrocyclic peptides active against the hepatitis C virus” (Boehringer Ingelheim (Canada) Ltd, priority 1999, dated 2003).
Read-outs that look alike come from different tables or passages of the source.

Target: T1, His-NS3-NS4AFL (full-length NS3-NS4A protein complex) (Hepatitis C virus genotype 1b, UniProt P26663)
T1 construct: made in house; host or cells: Sf21 insect cells, recombinant baculovirus (Bac-to-Bac, pFastBac HTa)
Test: Full-length NS3-NS4A heterodimer protein fluorogenic assay
Assay type: biochemical, HCV genotype 1b
Excerpt: The NS2-NS5B-3′non coding region was cloned by RT-PCR into the pCR®3 vector (Invitrogen) using RNA extracted from the serum of an HCV genotype 1b infected individual (provided by Dr. Bernard Willems, Hôpital St-Luc, Montréal, Québec, Canada). The NS3-NS4A region (NS3-NS4AFL) was then subcloned by PCR into the pFastBac™ HTa baculovirus expression vector (Gibco/BRL). The vector sequence includes a region encoding a 28-residue N-terminal sequence which contains a hexahistidine tag. The Bac-to-Bac™ baculovirus expression system (Gibco/BRL) was used to produce the recombinant baculovirus. His-NS3-NS4AFL was expressed by infecting 10^6 Sf21 cells/mL with the recombinant baculovirus at a multiplicity of infection of 0.1-0.2 at 27°. Authentic auto-proteolysis occurs during expression to produce a non covalent and stable NS3-NS4A protein complex (referred to as full-length “FL”). The infected culture was harvested 48 to 64 h later by centrifugation at 4°. The cell pellet was homogenized in 50 mM NaPO4, pH 7.5, 40% glycerol (w/v), 2 mM β-mercaptoethanol, in presence of a cocktail of protease inhibitors. His-NS3-NS4AFL was then extracted from the cell lysate with 1.5% NP-40, 0.5% Triton X-100, 0.5M NaCl, and a DNase treatment. After ultracentrifugation, the soluble extract was diluted 4-fold and bound on a Pharmacia Hi-Trap Ni-chelating column. The His-NS3-NS4AFL was eluted in a >90% pure form (as judged by SDS-PAGE), using a 50 to 400 mM imidazole gradient. The His-NS3-NS4AFL was stored at −80° in 50 mM sodium phosphate, pH 7.5, 10% (w/v) glycerol, 0.5 M NaCl, 0.25 M imidazole, 0.1% NP-40. It was thawed on ice and diluted just prior to use.
The protease activity of His-NS3-NS4AFL was assayed in 50 mM Tris-HCl, pH 8.0, 0.25 M sodium citrate, 0.01% (w/v) n-dodecyl-β-D-maltoside, 1 mM TCEP. Five (5) μM of the internally quenched substrate anthranilyl-DDIVPAbu[C(O)—O]-AMY(3-NO2)TW-OH (SEQ. ID NO.: 1) in presence of various concentrations of inhibitor were incubated with 1.5 nM of His-NS3-NS4AFL for 45 min at 23°. […] The reaction was terminated with the addition of 1M MES, pH 5.8. Fluorescence of the N-terminal product was monitored on a Perkin-Elmer LS-50B fluorometer equipped with a 96-well plate reader (excitation wavelength: 325 nm, emission wavelength: 423 nm).
The % inhibition was calculated with the following equation:
100−[(fluoinh−fluoblank)/(fluoctl−fluoblank)×100]
A non-linear curve fit with the Hill model was applied to the inhibition-concentration data, and the 50% effective concentration (IC50) was calculated by the use of SAS software (Statistical Software System; SAS Institute, Inc. Cary, N.C.).

[1] = fluorogenic assay of Example 48, no asterisk, read-out: enzyme activity (IC50 grade)

T1 sequence (P26663 1658-1711): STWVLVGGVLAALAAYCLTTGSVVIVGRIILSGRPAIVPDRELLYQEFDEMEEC
T1 sequence (P26663 1027-1657): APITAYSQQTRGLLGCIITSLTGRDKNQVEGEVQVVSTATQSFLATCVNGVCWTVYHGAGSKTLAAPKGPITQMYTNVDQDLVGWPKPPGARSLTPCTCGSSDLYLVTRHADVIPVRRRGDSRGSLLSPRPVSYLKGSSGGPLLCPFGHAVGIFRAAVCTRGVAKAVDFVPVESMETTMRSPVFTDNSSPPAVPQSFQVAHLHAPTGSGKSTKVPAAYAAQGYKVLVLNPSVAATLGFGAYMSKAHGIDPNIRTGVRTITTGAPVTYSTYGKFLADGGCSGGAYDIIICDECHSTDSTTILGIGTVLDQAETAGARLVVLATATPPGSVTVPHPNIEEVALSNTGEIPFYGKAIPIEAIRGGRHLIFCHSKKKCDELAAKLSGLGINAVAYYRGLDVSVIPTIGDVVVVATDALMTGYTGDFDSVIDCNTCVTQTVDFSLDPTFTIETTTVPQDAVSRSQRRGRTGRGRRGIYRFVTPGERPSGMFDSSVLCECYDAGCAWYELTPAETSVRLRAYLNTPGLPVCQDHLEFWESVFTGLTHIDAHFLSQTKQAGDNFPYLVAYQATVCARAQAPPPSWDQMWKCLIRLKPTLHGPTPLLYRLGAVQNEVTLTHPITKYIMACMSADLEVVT

For `COc1ccc2c(O[C@@H]3C[C@H]4C(=O)N[C@]5(C(=O)O)C[C@H]5CCCCCCC[C@H](NC(C)=O)C(=O)N4C3)cc(-c3ccccc3)nc2c1` [Compound 219], the IC50 was < 0.1 µM.
For `COc1ccc2c(O[C@@H]3C[C@H]4C(=O)N[C@]5(C(=O)O)C[C@H]5/C=C\CCCCC[C@H](NC(=O)OC(C)(C)C)C(=O)N4C3)cc(-c3cnco3)nc2c1` [Compound 603], the IC50 [1] was < 0.1 µM.
In the case of `CC(C)(C)OC(=O)N[C@H]1CCCCCC=CCCC2CC2(C(=O)O)NC(=O)[C@@H]2C[C@@H](Oc3ccnc4ccccc34)CN2C1=O` (single isomer, unassigned) [Compound 301], the IC50 [1] is reported as 0.1 to 1 µM.
With `COc1ccc2c(O[C@@H]3C[C@H]4C(=O)N[C@]5(C(=O)O)C[C@H]5/C=C\CCC(O)CC[C@H](NC(=O)OC(C)(C)C)C(=O)N4C3)cc(-c3ccccc3)nc2c1` (mixture of isomers) [Compound 217] the IC50 was < 0.1 µM.
In the case of `COc1ccc2c(O[C@@H]3C[C@H]4C(=O)N[C@]5(C(=O)O)C[C@H]5/C=C\CCCCC[C@H](NC(=O)OC(C)(C)C)C(=O)N4C3)ccnc2c1` [Compound 207], the IC50 is reported as < 0.1 µM.
Work on `COc1ccc2c(O[C@@H]3C[C@H]4C(=O)N[C@]5(C(=O)O)C[C@H]5/C=C\CCCCCC(O)C(=O)N4C3)ccnc2c1` (single isomer, unassigned) [Compound 213] yielded an IC50 of 0.1 to 1 µM.
For `COc1ccc2c(O[C@@H]3C[C@H]4C(=O)N[C@]5(C(=O)O)C[C@H]5/C=C\COCCC[C@H](O)C(=O)N4C3)cc(-c3ccccc3)nc2c1` [Compound 305], the IC50 [1] was 0.1 to 1 µM.
`COc1ccc2c(O[C@@H]3C[C@H]4C(=O)N[C@]5(C(=O)O)C[C@H]5C=CCCCC=CC[C@H](NC(=O)OC(C)(C)C)C(=O)N4C3)cc(-c3ccccc3)nc2c1` [Compound 304] was tested, and the IC50 [1] was < 0.1 µM.
For `CC(C)(C)OC(=O)N[C@H]1CCCCC/C=C\[C@@H]2C[C@@]2(C(=O)O)NC(=O)[C@@H]2C[C@@H](Oc3ccnc4ccccc34)CN2C1=O` [Compound 206], the IC50 was < 0.1 µM.
For `COc1ccc2c(O[C@@H]3C[C@H]4C(=O)N[C@]5(C(=O)O)C[C@H]5/C=C\CCCCC[C@H](NC(=O)OC(C)(C)C)C(=O)N4C3)cc(-c3ccccc3)nc2c1` [Compound 208], the IC50 was < 0.1 µM.
In the case of `COc1ccc2c(OC3CC4C(=O)NC5(C(=O)O)CC5CCC=CCOCC(NC(=O)OC(C)(C)C)C(=O)N4C3)cc(-c3ccccc3)nc2c1` (stereo not drawn) [Compound 403], the IC50 [1] is reported as < 0.1 µM.
For `CC(=O)Nc1nc(-c2cc(O[C@@H]3C[C@H]4C(=O)N[C@]5(C(=O)O)C[C@H]5/C=C\CCCCC[C@H](NC(=O)OC(C)(C)C)C(=O)N4C3)c3ccc(N(C)C)cc3n2)cs1` [Compound 601], the IC50 [1] was < 0.1 µM.
`COc1ccc2c(OC3CC4C(=O)NC5(C(=O)O)CC5CCC=CCCCC(NC(=O)OC(C)(C)C)C(=O)N4C3)cc(-c3ccccc3)nc2c1` (stereo not drawn) [Compound 402] showed an IC50 [1] of 0.1 to 1 µM.
`CC(C)(C)OC(=O)N[C@H]1CCC/C=C/CC[C@@H]2C[C@@]2(C(=O)O)NC(=O)[C@@H]2CC(Oc3ccnc4ccccc34)CN2C1=O` (stereo partly drawn) [Compound 202] gave an IC50 of 0.1 to 1 µM.
For `COc1ccc2c(O[C@@H]3C[C@H]4C(=O)N[C@]5(C(=O)O)C[C@H]5/C=C\CCCCC[C@H](N)C(=O)N4C3)cc(-c3ccccc3)nc2c1` [Compound 211], the IC50 was < 0.1 µM.
